Laboratory results published in patent publication US11828750B2, “Material for screening for compound acting on ION channel and use thereof” (PUBLIC UNIVERSITY CORPORATION NAGOYA CITY UNIVERSITY, priority 2016, dated 2023).

Legend:
hTREK-1 = target: T1, hTREK-1 (Homo sapiens, UniProt O95069); assay: Cell death assay (MTT method) in TREK-1 test cells (hTREK-1#Kir 2.1#mutated Nav HEK293 cells); type: cell-based; conditions: 37° C.
T1 construct: expressed in transfected cells; host or cells: HEK293 cells stably expressing Kir 2.1 and Nav 1.5 IFM/QQQ; hTREK-1 in pcDNA3.1(+)
T1 sequence (O95069 1-422 isoform O95069-3): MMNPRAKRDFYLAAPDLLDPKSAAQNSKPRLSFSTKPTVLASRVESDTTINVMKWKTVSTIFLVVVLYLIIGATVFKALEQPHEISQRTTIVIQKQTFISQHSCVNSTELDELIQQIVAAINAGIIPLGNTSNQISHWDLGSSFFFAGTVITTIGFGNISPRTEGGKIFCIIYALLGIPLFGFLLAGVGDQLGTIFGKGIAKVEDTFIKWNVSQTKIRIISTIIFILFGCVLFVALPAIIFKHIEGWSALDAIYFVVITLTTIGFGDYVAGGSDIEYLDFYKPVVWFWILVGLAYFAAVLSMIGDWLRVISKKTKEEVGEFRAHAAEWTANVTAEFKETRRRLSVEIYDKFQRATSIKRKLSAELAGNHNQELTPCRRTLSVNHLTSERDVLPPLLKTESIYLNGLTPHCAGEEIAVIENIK
Procedure: (Cell Culture and Gene Insertion) Human-derived embryonic kidney cells (HEK293 cells) were purchased from the Health Sciences Research Resource Bank (HSRRB). 10% fetal bovine serum (FBS, Gibco Corp.) was added thereto followed by culturing at 37° C. in 5% CO2 in Dulbecco's Modified Eagle Medium (D-MEM, Wako Pure Chemical Industries, Ltd.) containing 100 U/ml penicillin (Wako Pure Chemical Industries, Ltd.) and 100 μg/ml streptomycin (Meiji Seika Kaisha, Ltd.). pcDNA3.1/Kir 2.1, obtained by subcloning human-derived Kir 2.1 (NM #000891) in pcDNA3.1(+) (Invitrogen Corp.), was inserted using Lipofectamine 2000 (Invitrogen Corp.) followed by culturing in medium obtained by adding 0.2 mg/ml Zeocin (Invitrogen Corp.) to the above-mentioned D-MEM medium and then cloning Zeocin resistant cells to prepare Kir 2.1 constantly expressing cells (HEK#Kir). In addition, the deactivation mutant Nav 1.5 IFM/QQQ was inserted into the Kir 2.1 constantly expressing cells using the same method (HEK#Kir#mutated Nav).
Proceeding as above, hTREK-1#Kir 2.1 #mutated Nay cells (referred to herebelow as TREK-1 test cells) were prepared by subcloning hTREK-1 (GenBank Accession Number: NM #001017424), a type of human-derived K2P channel, in pcDNA3.1(+) and inserting it in the previously prepared Kir 2.1 #mutated Nav cells. […]

hTASK-1 = assay: Cell death assay in TASK-1 test cells (hTASK-1 transiently expressing Kir 2.1#mutated Nav cells); type: cell-based, human
Procedure: With the TREK-1 test cells, the culture medium was replaced with measurement buffer (137 mM NaCl, 5.9 mM KCl, 2.2 mM CaCl2, 1.2 mM MgCl2, 14 mM glucose, 10 mM HEPES (pH 7.4 with NaOH), this also applies in the following) and BaCl2 was added to provide 200 μM Ba ion, a Kir 2.1 inhibitor. This was followed by incubation for approximately 12 hours under conditions of 37° C., atmospheric pressure, and 5% CO2 and monitoring of cell death. […] The measurement of cell death was carried out using the MTT method with reference to a paper by the present inventors (Yamazaki, D., et al., Am J Physiol Cell Physiol 300, C75-86, 2011).
hTASK-1 (the Δi20 mutant was used due to poor transfer to the cell membrane by the wild type, resulting in the problems of a small current and measurement difficulties. This mutant is reported to readily transfer to the membrane. Renigunta et al., Traffic 7:168-181, 2006) and hTASK-3 (GenBank Accession Number: NM #001282534), which are types of human-derived K2P channels, were subcloned in a baculovirus vector, a viral vector, and were inserted into the Kir 2.1 #mutated Nav cells prepared in Second Embodiment to prepare hTASK-1 transiently expressing TASK-1#Kir 2.1 #mutated Nav cells and hTASK-3 transiently expressing hTASK-3#Kir 2.1 #mutated Nav cells (referred to herebelow as TASK-1 test cells and TASK-3 test cells), respectively, which transiently expressed hTASK-1 and hTASK-3. Sf-900 III SFM (Thermo Fisher Scientific) was used for the culture medium for baculovirus vector production, and Dulbecco's Modified Eagle Medium (D-MEM) culture medium supplemented with 10% fetal bovine serum (FBS) was used as the culture medium for the test cells.
For TASK-3 this was the same as the literature value of 35 nM (Coburn et al., Chem Med Chem., 7(1), 123-33, 2012).

hTASK-3 = target: T2, hTASK-3 (Homo sapiens, UniProt Q9NPC2); assay: Cell death assay in TASK-3 test cells (hTASK-3 transiently expressing Kir 2.1#mutated Nav cells); type: cell-based; conditions: 200 μM Ba ion
T2 construct: expressed in transfected cells; host or cells: HEK293 Kir 2.1 + mutated Nav cells, transient expression via baculovirus vector
T2 sequence (Q9NPC2 whole entry): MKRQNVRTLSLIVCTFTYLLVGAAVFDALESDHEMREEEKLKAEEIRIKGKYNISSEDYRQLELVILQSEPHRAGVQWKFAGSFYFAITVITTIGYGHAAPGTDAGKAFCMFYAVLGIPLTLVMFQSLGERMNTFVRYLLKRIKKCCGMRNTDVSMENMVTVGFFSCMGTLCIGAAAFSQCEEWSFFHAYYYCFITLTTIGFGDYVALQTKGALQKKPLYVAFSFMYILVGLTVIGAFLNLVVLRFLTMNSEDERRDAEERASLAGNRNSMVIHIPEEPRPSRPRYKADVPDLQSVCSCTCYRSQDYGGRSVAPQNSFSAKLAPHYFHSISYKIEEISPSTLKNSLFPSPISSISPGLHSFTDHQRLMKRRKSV
Excerpt: Sf-900 III SFM (Thermo Fisher Scientific) was used for the culture medium for baculovirus vector production, and Dulbecco's Modified Eagle Medium (D-MEM) culture medium supplemented with 10% fetal bovine serum (FBS) was used as the culture medium for the test cells.

hSK4 = target: T3, hSK4 (Homo sapiens, UniProt O15554); assay: Cell death assay in SK4 test cells (Kir 2.1+IFM/QQQ+SK4 cells); type: cell-based; conditions: in the presence of 100 nM Ca ion
T3 construct: expressed in transfected cells; host or cells: HEK293 Kir 2.1 + mutated Nav cells, transient expression via baculovirus vector
Excerpt: (§1) hSK2 and hSK4, which are each one type of human-derived Ca ion-activated ion channel, were respectively subcloned in a baculovirus vector, which is a viral vector, and were inserted into the Kir 2.1 #mutated Nav cells prepared in Second Embodiment to prepare hSK2 transiently expressing Kir 2.1+IFM/QQQ+SK2 cells (referred to herebelow as SK2 test cells) and hSK4 transiently expressing Kir 2.1+IFM/QQQ+SK4 cells (referred to herebelow as SK4 test cells). Sf-900 III SFM (Thermo Fisher Scientific) was used for the culture medium for baculovirus vector production, and Dulbecco's Modified Eagle Medium (D-MEM) culture medium supplemented with 10% fetal bovine serum (FBS) was used as the culture medium for the test cells.

hSK2 = target: T4, hSK2 (Homo sapiens, UniProt Q9H2S1); assay: Cell death assay in SK2 test cells (Kir 2.1+IFM/QQQ+SK2 cells); type: cell-based
T4 construct: expressed in transfected cells; host or cells: HEK293 Kir 2.1 + mutated Nav cells, transient expression via baculovirus vector
Excerpt: as §1

TASK-1 = TASK-1 (Homo sapiens, UniProt O14649); conditions: Zou et al. 2010; read-out: reported IC50 for TASK-1; cited from earlier work
TASK-1, sequence (O14649 whole entry, species assumed): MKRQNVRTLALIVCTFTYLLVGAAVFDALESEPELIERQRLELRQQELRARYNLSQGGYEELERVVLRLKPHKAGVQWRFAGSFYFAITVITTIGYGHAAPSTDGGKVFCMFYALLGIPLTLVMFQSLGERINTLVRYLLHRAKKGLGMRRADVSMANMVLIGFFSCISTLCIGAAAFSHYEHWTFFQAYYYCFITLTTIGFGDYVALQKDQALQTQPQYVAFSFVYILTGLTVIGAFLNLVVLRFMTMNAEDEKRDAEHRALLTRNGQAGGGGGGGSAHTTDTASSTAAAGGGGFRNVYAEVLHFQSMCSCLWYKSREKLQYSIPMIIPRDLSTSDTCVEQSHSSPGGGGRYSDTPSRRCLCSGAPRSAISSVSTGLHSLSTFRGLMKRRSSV

Compound: Nc1ncnc2c1nc(Br)n2[C@@H]1O[C@@H]2COP(=O)(O)O[C@H]2[C@H]1O [8-Br-cAMP]
- cell death on supply of TREK-1 inhibitor (hTREK-1; in the presence of 200 μM Ba ion, approximately 12 hours, MTT method): Cell death was observed

Compound: [Ba+2].[Cl-].[Cl-] [Ba ion, BaCl2]
- cell death with Ba ion alone (hTASK-1; 200 μM Ba ion): cell death was not produced
- cell death with Ba ion alone (hTREK-1; 200 μM Ba ion, TREK-1 test cells): cell death was not produced
- cell death with Ba ion alone (hTASK-3): cell death was not produced

Compound: CCn1c(=O)[nH]c2cc(Cl)c(Cl)cc21 [DCEBIO, 5,6-dichloro-1-ethyl-1,3-dihydro-2H-benzimidazole-2-one]
- cell death of SK4 test cells on addition of activator (hSK4): cell death of the SK4 test cells was inhibited

Compound: O=C1Nc2c(ccc(Cl)c2Cl)C1=NO [NS309, 3-oxime-6,7-dichloro-1H-indole-2,3-dione]
- cell death of SK2 test cells on addition of activator (hSK2; in the presence of 100 nM Ca ion): cell death of the SK2 test cells was inhibited

Compound: c1cc2cc(c1)C[n+]1ccc(c3ccccc31)NCc1ccc(cc1)CNc1cc[n+](c3ccccc13)C2 [UCL1684]
- effect of inhibitor on NS309-mediated inhibition of cell death (hSK2; added together with NS309, 100 nM Ca ion): the NS309-mediated inhibition of cell death was extinguished

Compound: ML365
- induction of cell death by inhibitor (hTASK-1; in the presence of 200 μM Ba ion): cell death was observed in a concentration-dependent regime
- concentration above which a sharp increase in the induction of cell death occurred (hTASK-1; in the presence of Ba ion): > 11.5 nM
- IC50 (TASK-1): 12 nM
